Measurements as given in ChEMBL document CHEMBL3627608, “Crystal structures of human RIP2 kinase catalytic domain complexed with ATP-competitive inhibitors: Foundations for understanding inhibitor selectivity” (Bioorg Med Chem, 2015).

What was measured:
[1] = molecular target: T1, Mitogen-activated protein kinase 13 (Homo sapiens) (UniProt O15264); test: Inhibition of P38delta (unknown origin) at 10 uM after 120 mins P33 radiolabeled kinase activity assay
T1 sequence (whole entry): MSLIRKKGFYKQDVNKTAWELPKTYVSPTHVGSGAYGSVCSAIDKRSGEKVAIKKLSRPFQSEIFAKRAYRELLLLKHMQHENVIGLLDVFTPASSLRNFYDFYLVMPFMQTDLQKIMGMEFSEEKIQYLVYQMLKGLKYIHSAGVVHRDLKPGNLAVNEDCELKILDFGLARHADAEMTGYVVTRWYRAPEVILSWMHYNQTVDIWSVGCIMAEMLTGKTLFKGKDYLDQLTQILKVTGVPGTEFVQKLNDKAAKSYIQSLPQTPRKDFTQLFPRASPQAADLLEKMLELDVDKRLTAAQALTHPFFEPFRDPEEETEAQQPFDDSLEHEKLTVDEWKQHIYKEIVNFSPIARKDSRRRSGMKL

[2] = molecular target: T2, Serine/threonine-protein kinase ULK1 (Homo sapiens) (UniProt O75385); test: Inhibition of ULK1 (unknown origin) at 10 uM after 120 mins P33 radiolabeled kinase activity assay
T2 sequence (whole entry): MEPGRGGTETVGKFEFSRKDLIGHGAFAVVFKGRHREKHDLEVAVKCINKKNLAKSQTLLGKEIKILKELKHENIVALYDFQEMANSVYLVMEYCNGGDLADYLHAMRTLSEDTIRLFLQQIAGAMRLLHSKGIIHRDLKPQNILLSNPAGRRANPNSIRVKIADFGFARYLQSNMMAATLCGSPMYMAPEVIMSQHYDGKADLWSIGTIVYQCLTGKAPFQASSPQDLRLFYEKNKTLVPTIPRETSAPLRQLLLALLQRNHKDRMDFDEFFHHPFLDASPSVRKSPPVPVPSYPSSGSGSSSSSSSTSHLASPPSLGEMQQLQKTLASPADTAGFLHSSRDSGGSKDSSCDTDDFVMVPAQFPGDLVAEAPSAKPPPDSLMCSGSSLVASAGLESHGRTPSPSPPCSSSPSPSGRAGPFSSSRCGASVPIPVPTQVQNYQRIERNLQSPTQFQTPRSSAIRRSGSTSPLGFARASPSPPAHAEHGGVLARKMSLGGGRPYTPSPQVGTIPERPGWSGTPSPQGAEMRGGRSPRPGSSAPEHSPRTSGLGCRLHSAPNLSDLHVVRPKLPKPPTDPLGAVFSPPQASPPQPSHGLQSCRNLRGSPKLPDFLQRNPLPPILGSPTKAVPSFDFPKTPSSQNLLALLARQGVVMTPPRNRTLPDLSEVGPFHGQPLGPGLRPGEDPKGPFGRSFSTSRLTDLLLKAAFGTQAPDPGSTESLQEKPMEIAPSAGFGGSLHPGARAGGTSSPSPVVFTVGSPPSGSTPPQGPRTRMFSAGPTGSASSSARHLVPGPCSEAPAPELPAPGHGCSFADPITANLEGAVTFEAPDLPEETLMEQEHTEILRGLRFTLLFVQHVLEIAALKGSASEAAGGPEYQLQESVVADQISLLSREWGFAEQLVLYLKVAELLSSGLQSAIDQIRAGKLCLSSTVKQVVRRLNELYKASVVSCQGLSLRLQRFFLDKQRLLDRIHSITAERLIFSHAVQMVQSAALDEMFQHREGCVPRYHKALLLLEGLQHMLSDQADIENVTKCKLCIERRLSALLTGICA

[3] = molecular target: Focal adhesion kinase 1 (Homo sapiens) (UniProt Q05397); test: Inhibition of FAK (unknown origin) at 10 uM after 120 mins P33 radiolabeled kinase activity assay
Sequence of Focal adhesion kinase 1 (Homo sapiens) (Q05397 2-1052 limits assumed): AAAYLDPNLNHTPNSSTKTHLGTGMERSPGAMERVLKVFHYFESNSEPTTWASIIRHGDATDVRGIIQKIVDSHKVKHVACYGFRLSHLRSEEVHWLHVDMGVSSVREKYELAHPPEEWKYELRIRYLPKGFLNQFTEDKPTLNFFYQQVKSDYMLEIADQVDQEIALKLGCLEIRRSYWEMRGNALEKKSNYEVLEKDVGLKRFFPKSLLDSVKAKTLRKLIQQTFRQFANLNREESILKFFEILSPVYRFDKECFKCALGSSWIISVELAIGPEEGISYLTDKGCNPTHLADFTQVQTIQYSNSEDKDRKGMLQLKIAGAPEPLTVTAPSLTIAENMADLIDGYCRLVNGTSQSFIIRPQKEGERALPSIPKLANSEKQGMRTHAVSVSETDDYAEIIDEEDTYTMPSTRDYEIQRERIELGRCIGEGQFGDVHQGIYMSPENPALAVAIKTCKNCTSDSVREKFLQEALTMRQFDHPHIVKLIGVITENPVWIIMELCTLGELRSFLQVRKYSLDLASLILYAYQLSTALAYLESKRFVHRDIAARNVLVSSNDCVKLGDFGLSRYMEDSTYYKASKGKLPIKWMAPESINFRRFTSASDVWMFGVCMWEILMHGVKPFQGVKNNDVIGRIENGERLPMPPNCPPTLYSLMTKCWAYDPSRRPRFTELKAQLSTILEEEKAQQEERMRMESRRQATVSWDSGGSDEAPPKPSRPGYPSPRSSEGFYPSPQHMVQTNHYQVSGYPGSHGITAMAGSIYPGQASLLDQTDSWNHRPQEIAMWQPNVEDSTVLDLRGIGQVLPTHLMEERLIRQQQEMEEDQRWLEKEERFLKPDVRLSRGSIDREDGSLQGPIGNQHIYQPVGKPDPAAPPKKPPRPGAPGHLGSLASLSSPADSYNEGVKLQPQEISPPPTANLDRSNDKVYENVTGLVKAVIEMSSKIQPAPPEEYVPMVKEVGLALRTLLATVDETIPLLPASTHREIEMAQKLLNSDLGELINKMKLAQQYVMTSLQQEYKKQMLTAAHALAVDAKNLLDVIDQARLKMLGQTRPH

[4] = molecular target: T3, Serine/threonine-protein kinase D3 (Homo sapiens) (UniProt O94806); test: Inhibition of PKCnu (unknown origin) at 10 uM after 120 mins P33 radiolabeled kinase activity assay
T3 sequence (whole entry): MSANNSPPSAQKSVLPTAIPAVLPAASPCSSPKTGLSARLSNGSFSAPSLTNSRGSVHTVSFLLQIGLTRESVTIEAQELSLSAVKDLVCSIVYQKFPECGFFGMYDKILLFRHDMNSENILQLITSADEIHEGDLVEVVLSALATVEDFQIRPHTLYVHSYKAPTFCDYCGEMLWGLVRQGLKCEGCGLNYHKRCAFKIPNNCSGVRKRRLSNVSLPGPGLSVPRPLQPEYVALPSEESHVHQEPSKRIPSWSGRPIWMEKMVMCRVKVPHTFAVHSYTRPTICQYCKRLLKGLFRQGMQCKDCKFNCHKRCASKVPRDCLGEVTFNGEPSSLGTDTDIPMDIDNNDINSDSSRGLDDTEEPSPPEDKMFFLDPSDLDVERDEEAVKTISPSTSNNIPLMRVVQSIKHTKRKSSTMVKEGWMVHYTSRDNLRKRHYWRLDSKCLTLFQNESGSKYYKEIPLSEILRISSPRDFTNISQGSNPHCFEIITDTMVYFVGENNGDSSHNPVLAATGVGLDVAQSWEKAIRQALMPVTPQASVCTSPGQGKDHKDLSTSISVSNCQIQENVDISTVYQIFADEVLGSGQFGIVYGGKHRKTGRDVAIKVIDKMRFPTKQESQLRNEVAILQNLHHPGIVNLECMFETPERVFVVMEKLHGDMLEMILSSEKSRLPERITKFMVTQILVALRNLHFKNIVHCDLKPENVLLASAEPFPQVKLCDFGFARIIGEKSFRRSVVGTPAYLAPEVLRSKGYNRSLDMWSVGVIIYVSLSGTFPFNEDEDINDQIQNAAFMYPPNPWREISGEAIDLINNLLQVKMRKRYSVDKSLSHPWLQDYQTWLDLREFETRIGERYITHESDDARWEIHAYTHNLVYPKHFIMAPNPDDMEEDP

[5] = molecular target: Insulin receptor (Homo sapiens) (UniProt P06213); test: Inhibition of IR (unknown origin) at 10 uM after 120 mins P33 radiolabeled kinase activity assay
Sequence of Insulin receptor (Homo sapiens) (P06213 28-758 limits assumed): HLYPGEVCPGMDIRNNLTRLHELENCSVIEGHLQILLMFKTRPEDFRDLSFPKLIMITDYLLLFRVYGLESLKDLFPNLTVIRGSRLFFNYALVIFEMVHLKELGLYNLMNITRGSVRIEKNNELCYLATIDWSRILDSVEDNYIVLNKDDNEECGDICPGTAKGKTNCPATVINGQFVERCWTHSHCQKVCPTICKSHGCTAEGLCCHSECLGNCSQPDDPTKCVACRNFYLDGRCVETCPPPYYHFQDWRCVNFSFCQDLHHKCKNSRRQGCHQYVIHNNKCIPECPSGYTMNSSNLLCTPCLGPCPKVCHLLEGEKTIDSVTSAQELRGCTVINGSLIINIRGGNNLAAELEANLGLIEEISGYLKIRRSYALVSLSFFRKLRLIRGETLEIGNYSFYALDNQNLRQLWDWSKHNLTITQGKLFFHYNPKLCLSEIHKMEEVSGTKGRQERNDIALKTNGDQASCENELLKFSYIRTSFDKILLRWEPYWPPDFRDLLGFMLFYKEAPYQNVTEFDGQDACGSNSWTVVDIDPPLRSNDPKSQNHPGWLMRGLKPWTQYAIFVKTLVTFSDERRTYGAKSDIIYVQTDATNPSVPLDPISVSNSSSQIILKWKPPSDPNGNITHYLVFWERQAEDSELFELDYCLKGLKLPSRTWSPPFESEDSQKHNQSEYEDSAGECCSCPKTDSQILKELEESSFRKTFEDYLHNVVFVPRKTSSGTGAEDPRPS
Sequence of Insulin receptor (Homo sapiens) (P06213 763-1382 limits assumed): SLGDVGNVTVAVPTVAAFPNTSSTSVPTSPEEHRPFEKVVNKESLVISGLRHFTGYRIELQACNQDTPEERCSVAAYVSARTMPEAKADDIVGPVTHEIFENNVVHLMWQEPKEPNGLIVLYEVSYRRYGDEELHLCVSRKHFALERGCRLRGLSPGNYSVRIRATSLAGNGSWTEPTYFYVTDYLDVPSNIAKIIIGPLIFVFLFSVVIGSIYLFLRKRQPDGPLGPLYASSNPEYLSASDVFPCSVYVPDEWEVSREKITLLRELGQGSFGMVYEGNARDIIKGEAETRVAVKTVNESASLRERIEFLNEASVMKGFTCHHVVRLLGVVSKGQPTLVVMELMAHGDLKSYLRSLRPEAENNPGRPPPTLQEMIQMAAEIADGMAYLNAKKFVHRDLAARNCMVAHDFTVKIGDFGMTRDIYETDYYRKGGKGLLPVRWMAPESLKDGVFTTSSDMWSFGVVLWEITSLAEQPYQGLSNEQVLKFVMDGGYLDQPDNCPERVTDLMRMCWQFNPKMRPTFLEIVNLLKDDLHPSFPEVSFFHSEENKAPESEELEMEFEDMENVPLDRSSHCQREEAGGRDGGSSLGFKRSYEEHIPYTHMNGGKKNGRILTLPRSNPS

[6] = molecular target: Dual specificity tyrosine-phosphorylation-regulated kinase 1B (Homo sapiens) (UniProt Q9Y463); test: Inhibition of DYRK1B (unknown origin) at 10 uM after 120 mins P33 radiolabeled kinase activity assay
Sequence of Dual specificity tyrosine-phosphorylation-regulated kinase 1B (Homo sapiens) (Q9Y463 whole entry, looked up): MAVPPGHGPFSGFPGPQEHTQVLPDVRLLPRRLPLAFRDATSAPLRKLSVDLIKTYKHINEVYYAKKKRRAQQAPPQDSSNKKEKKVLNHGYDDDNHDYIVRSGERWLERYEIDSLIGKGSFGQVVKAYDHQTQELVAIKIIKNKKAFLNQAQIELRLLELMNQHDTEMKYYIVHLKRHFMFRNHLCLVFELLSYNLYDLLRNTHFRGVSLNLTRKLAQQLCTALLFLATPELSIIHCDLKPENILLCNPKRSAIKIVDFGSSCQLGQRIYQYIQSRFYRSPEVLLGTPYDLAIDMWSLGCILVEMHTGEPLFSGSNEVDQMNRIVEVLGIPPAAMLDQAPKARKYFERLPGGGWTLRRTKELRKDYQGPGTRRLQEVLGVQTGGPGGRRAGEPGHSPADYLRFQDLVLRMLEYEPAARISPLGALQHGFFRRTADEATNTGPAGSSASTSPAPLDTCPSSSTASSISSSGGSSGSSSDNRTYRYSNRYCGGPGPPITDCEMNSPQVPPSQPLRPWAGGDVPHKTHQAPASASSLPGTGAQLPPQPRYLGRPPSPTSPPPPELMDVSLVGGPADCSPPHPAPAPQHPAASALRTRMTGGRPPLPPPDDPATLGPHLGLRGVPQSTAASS

[7] = molecular target: Citron Rho-interacting kinase (Homo sapiens) (UniProt O14578); test: Inhibition of STK21 (unknown origin) at 10 uM after 120 mins P33 radiolabeled kinase activity assay
[8] = molecular target: RAC-alpha serine/threonine-protein kinase (Homo sapiens) (UniProt P31749); test: Inhibition of AKT1 (unknown origin) at 10 uM after 120 mins P33 radiolabeled kinase activity assay
Sequence of RAC-alpha serine/threonine-protein kinase (Homo sapiens) (P31749 whole entry): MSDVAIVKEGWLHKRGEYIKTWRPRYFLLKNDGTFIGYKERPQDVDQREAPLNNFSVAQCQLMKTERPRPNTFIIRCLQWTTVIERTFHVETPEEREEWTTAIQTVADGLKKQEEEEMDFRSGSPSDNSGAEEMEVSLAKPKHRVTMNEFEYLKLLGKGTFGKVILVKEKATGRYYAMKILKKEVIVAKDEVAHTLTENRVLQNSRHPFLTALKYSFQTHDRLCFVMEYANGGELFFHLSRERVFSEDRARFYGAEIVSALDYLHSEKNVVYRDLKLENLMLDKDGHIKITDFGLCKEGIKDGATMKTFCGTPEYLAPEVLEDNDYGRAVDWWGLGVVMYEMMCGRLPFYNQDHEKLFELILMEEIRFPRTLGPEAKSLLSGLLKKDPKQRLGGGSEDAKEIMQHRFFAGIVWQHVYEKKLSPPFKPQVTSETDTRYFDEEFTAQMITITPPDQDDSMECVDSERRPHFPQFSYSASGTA

[9] = molecular target: Dual specificity testis-specific protein kinase 1 (Homo sapiens) (UniProt Q15569); test: Inhibition of TESK1 (unknown origin) at 10 uM after 120 mins P33 radiolabeled kinase activity assay
Sequence of Dual specificity testis-specific protein kinase 1 (Homo sapiens) (Q15569 whole entry, looked up): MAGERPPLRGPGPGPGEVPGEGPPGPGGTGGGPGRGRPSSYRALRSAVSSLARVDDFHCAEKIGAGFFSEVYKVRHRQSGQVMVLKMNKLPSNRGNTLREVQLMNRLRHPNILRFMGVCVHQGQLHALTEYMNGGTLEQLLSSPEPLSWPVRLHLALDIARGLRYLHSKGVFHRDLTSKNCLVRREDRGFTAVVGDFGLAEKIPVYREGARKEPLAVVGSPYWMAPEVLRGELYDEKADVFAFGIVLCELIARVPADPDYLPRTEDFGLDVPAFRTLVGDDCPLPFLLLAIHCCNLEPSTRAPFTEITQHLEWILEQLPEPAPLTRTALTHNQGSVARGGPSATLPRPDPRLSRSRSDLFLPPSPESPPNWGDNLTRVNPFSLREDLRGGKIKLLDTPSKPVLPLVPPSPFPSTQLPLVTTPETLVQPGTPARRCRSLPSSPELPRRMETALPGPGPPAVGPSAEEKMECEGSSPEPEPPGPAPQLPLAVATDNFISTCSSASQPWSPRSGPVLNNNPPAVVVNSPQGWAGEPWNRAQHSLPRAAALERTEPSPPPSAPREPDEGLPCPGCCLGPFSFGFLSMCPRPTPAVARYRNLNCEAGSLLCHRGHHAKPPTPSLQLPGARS

[10] = molecular target: Ribosomal protein S6 kinase alpha-3 (Homo sapiens) (UniProt P51812); test: Inhibition of RSK2 (unknown origin) at 10 uM after 120 mins P33 radiolabeled kinase activity assay
Sequence of Ribosomal protein S6 kinase alpha-3 (Homo sapiens) (P51812 whole entry): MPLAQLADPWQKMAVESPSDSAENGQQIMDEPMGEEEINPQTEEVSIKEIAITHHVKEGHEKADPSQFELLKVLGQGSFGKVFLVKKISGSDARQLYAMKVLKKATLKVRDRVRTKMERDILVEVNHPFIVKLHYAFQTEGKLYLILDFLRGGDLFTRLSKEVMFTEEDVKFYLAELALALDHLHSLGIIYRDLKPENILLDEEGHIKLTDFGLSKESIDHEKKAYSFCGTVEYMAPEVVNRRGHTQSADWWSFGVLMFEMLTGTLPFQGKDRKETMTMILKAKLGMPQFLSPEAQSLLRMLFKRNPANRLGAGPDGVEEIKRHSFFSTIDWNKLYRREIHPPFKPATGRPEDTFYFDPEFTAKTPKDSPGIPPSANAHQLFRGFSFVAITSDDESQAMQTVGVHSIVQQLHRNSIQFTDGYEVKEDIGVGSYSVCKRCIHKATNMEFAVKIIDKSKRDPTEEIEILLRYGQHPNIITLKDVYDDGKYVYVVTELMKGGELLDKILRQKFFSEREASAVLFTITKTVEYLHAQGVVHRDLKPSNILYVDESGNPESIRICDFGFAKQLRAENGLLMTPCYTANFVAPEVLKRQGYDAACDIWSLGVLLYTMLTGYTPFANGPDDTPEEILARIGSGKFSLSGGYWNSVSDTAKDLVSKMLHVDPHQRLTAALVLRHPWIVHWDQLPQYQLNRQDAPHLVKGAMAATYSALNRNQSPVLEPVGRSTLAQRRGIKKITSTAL

[11] = molecular target: Tyrosine-protein kinase Blk (Homo sapiens) (UniProt P51451); test: Inhibition of BLK (unknown origin) at 10 uM after 120 mins P33 radiolabeled kinase activity assay

How did the inhibition [1] turn out when `COCCNC(=O)c1ccc2c(c1)nc(-c1cnc(-c3ccc(Cl)cc3)[nH]1)n2CCOC` was run?
The inhibition was 3.01%.

And the inhibition [2]?
The inhibition was 3.62%.

What about the inhibition [3] of the same molecule?
Its inhibition is 0.5%.

And the inhibition [4]?
The inhibition was 9.76%.

And the inhibition [5]?
Its inhibition is 2.89%.

And the inhibition [6]?
The inhibition was 11.4%.

What about the inhibition [7] of the same molecule?
Its inhibition is -5.27%.

And the inhibition [8]?
Its inhibition is 4.96%.

What about the inhibition [9] of the same molecule?
The inhibition was 4.86%.

And the inhibition [10]?
The inhibition was 5.36%.

And the inhibition [11]?
The inhibition was 34.2%.

Which inhibition [1] does the source give for `CS(=O)(=O)c1cccc(Nc2nccc(-c3sc(N4CCOCC4)nc3-c3cccc(NS(=O)(=O)c4c(F)cccc4F)c3)n2)c1` here?
Its inhibition is 2%.

And the inhibition [2]?
The inhibition was 52.4%.

And the inhibition [3]?
Its inhibition is 15%.

And the inhibition [4]?
The inhibition was 99.9%.

And the inhibition [5]?
The inhibition was 0.58%.

What about the inhibition [6] of the same molecule?
Its inhibition is 27.5%.

And the inhibition [7]?
Its inhibition is -3.87%.

What about the inhibition [8] of the same molecule?
Its inhibition is 3.36%.

What about the inhibition [9] of the same molecule?
Its inhibition is 97%.

What about the inhibition [10] of the same molecule?
Its inhibition is 66.8%.

And the inhibition [11]?
Its inhibition is 99.4%.

`CC(C)(C)c1cc(NC(=O)Nc2ccc(Oc3ccncc3)cc2)no1` was tested. Which inhibition [1] did it give?
Its inhibition is 93.4%.

And the inhibition [2]?
Its inhibition is 5.71%.

What about the inhibition [3] of the same molecule?
Its inhibition is 11.7%.

And the inhibition [4]?
The inhibition was 11.4%.

And the inhibition [5]?
The inhibition was 21.6%.

And the inhibition [6]?
The inhibition was 14.5%.

What about the inhibition [7] of the same molecule?
The inhibition was -1.52%.

What about the inhibition [8] of the same molecule?
The inhibition was 4.64%.

What about the inhibition [9] of the same molecule?
Its inhibition is 20%.

And the inhibition [10]?
Its inhibition is 46.3%.

What about the inhibition [11] of the same molecule?
Its inhibition is 65.8%.
